Measurements: patent publication US6572603B1, “Vitamin d solution holder and containers for transfusions” (Otsuka Pharmaceutical Factory, Inc., priority 1998, dated 2003)
Structures can show the parent of a compound that is named as a salt.

Columns and labels:
[1] = Vitamin contents in transfusion fluid containers of Examples 4 and 5 after autoclaving and 40° C. four-month storage, bioassay (vitamin B12, biotin) or HPLC (other vitamins); type: physicochemical
Experimental: In a holder produced from a three-layered film (the thickness of each layer: 10 μm) in which the outer and the inner layers are made of polyethylene and the intermediate layer is made of ethylene.tetracyclododecene copolymer (trade name: Apel, product of Mitsui Chemicals, Inc.), solution (C) (4 ml) was charged and the inlet was melt-sealed. In a two-compartment container, the prepared holder was attached to one of the compartments. […] The above-described transfusion fluid containers in Examples 4 and 5 were allowed to stand at 40° C. for four months after autoclaving. Thereafter, the contents of vitamins in the containers were measured through a bioassay according to Pharmacopoeia of Japan (for vitamin B12 and biotin) or through HPLC (for other vitamins). The content of each vitamin is represented by a percentage (%) of the initially incorporated amount.

[2] = Vitamin content of solution (C) in polyolefin holders after autoclaving and storage at 40° C. for four months, measured through HPLC (Example 3); type: physicochemical
Experimental: Solution (C) (4 ml) prepared in Example 1 was charged into each of holders made of the materials shown in Table 3, to thereby obtain a holder which contains a solution of vitamin D3. Each of these holders containing a solution of vitamin D3 was subjected to autoclaving and wrapped in a nylon multi-layered-film bag together with a deoxidizing agent (trade name: Ageless, product of Mitsubishi Gas Chem. Co., Inc.). The thus-wrapped holders were allowed to stand at 40° C. for four months. Thereafter, the content of each vitamin in each holder was measured through HPLC. The content of each vitamin is represented by a percentage (%) of the initially incorporated amount.

[3] = Example 4 transfusion fluid container, 40° C., 4 months
[4] = Example 4 transfusion fluid container, immediately after sterilization
[5] = Example 5 transfusion fluid container, 40° C., 4 months
[6] = Example 5 transfusion fluid container, immediately after sterilization
[7] = holder No. 1, polyethylene, 30 μm, resin 7.4 cm^3 per μmol vitamin D, 40° C., 4 months
[8] = holder No. 1, polyethylene, 30 μm, resin 7.4 cm^3 per μmol vitamin D, after sterilization
[9] = holder No. 2, polyethylene, 100 μm, resin 18.5 cm^3 per μmol vitamin D, 40° C., 4 months
[10] = holder No. 2, polyethylene, 100 μm, resin 18.5 cm^3 per μmol vitamin D, after sterilization
[11] = holder No. 3, polypropylene, 30 μm, resin 7.4 cm^3 per μmol vitamin D, 40° C., 4 months
[12] = holder No. 3, polypropylene, 30 μm, resin 7.4 cm^3 per μmol vitamin D, after sterilization
[13] = holder No. 4, polyethylene, 250 μm, resin 123.2 cm^3 per μmol vitamin D, 40° C., 4 months
[14] = holder No. 4, polyethylene, 250 μm, resin 123.2 cm^3 per μmol vitamin D, after sterilization
[15] = holder No. 5, polypropylene, 250 μm, resin 123.2 cm^3 per μmol vitamin D, 40° C., 4 months
[16] = holder No. 5, polypropylene, 250 μm, resin 123.2 cm^3 per μmol vitamin D, after sterilization

Compound	Vitamin content, percentage (%) of the initially incorporated amount [1, 3] [%]	Vitamin content, percentage (%) of the initially incorporated amount [1, 4] [%]	Vitamin content, percentage (%) of the initially incorporated amount [1, 5] [%]	Vitamin content, percentage (%) of the initially incorporated amount [1, 6] [%]	Vitamin content (%) of initially incorporated amount [2, 7] [%]	Vitamin content (%) of initially incorporated amount [2, 8] [%]	Vitamin content (%) of initially incorporated amount [2, 9] [%]	Vitamin content (%) of initially incorporated amount [2, 10] [%]	Vitamin content (%) of initially incorporated amount [2, 11] [%]	Vitamin content (%) of initially incorporated amount [2, 12] [%]	Vitamin content (%) of initially incorporated amount [2, 13] [%]	Vitamin content (%) of initially incorporated amount [2, 14] [%]	Vitamin content (%) of initially incorporated amount [2, 15] [%]	Vitamin content (%) of initially incorporated amount [2, 16] [%]
Cc1ncc(C[n+]2csc(CCO)c2C)c(N)n1 [Thiamin hydrochloride (B1), thiamin hydrochloride]	87.4	93.8	86.6	93.5	–	–	–	–	–	–	–	–	–	–
CC1=C(C/C=C(\C)CCC[C@H](C)CCC[C@H](C)CCCC(C)C)C(=O)c2ccccc2C1=O [Vitamin K, phytonadione]	95.3	96.2	95.4	95.8	91.3	95.4	90.8	94.7	91.3	96.1	89.1	94.3	88.7	93.9
NC(=O)c1cccnc1 [Nicotinamide, nicotinamide]	97.8	98.6	98.5	98.2	–	–	–	–	–	–	–	–	–	–
Cc1ncc(CO)c(CO)c1O.Cl [Pyridoxine hydrochloride (B6), pyridoxine hydrochloride]	100.1	100.5	99.8	99.7	–	–	–	–	–	–	–	–	–	–
Nc1nc2ncc(CNc3ccc(C(=O)N[C@@H](CCC(=O)O)C(=O)O)cc3)nc2c(=O)[nH]1 [Folic acid, folic acid]	97.5	97.8	99.1	98.3	–	–	–	–	–	–	–	–	–	–
cyanocobalamin [Cyanocobalamin (B12)]	89.2	91.3	90.5	96.5	–	–	–	–	–	–	–	–	–	–
O=C1O[C@H]([C@@H](O)CO)C(O)=C1O [Vitamin C, ascorbic acid]	98.3	98.7	97.5	97.8	94.3	96.2	95.4	97.1	94.2	97.3	94.8	97.5	93.1	96.8
CC(C)(CO)[C@@H](O)C(=O)NCCCO [Panthenol, panthenol]	96.9	97.4	97.6	98.5	–	–	–	–	–	–	–	–	–	–
CCCCCCCCCCCCCCCC(=O)OC/C=C(C)/C=C/C=C(C)/C=C/C1=C(C)CCCC1(C)C [Vitamin A, retinol palmitate]	84.5	87.2	83.9	86.5	80.7	91.1	81.3	90.9	81.2	90.7	78.3	89.1	77.8	88.9
CC(=O)Oc1c(C)c(C)c2c(c1C)CCC(C)(CCC[C@H](C)CCC[C@H](C)CCCC(C)C)O2 (some centres unmarked) [Vitamin E, tocopherol acetate]	95.1	94.9	94.8	95.3	98.3	98.7	99.7	99.4	97.3	97.6	95.6	98.2	95.3	97.6
O=C(O)CCCC[C@@H]1SC[C@@H]2NC(=O)N[C@@H]21 [Biotin, biotin]	99.8	100.4	100.3	98.7	–	–	–	–	–	–	–	–	–	–
Cc1cc2nc3c(=O)[nH]c(=O)nc-3n(C[C@H](O)[C@H](O)[C@H](O)COP(=O)(O)O)c2cc1C [Vitamin B2, sodium riboflavin phosphate]	83.2	86.5	84.3	85.9	90.7	94.8	91.2	96.3	91.0	95.4	90.9	94.6	91.2	95.3
